From patent US6878751B1, “Administration of resveratrol to treat inflammatory respiratory disorders” (Imperial College of Science Technology and Medicine, priority 2000, dated 2005) come the findings set out here.

The subject of data set [1] is Asthmatic steroid naive children. The data set is described as follows: Resveratrol substitution for glucocorticoids in asthmatic steroid naive children (Example 6). The format is in vivo, human. The protocol: Asthmatic steroid naive children with asthma disease severe enough to require chronic pulmonary steroid therapy are divided randomly and blindly into three groups. The duration of the study should be long, as pulmonary steroids for asthma are a chronic therapy, thus 1 to 2 years or more is optimal. The first group is treated with oral resveratrol, with the group subdivided randomly and blindly into four approximately equal subgroups that receive either 0 (placebo), 200, 2000, or 3000 mg/day resveratrol for about 12 to 24 months in oral doses of 0, 50, 500, or 750 mg administered 4 times daily for about 12 to 24 months. […]
The methods of the following references may be used in the evaluation of asthmatic disease: Wohl et al. (2000) N. Engl. […] Patients are medically monitored for clinical symptoms of asthma throughout the study, including frequency and severity of acute asthma attacks. […] In addition exhaled nitric oxide (NO) and carbon monoxide (CO) levels may be measured at more frequent intervals, such as every other week. Forced expiratory volume (FEV) and forced inspiratory volume (FIV) are also evaluated to measure airway patency as a direct measure of clinical morbidity and to determine correlation the histopathologic and other indicators of clinical disease, such as exhaled NO. […]

For data set [2], the system named is NF-κB dependent transcription. As to the kind of experiment: NF-κB luciferase reporter in stably transfected A549 cells. The format is cell-based, human. Here is the method:
The expression of inflammatory genes was then evaluated in cells transformed with luciferase reporter genes containing sites for transcription factors (Tf, Tfs). The A549 cells were stably transfected by routine methods with luciferase reporters containing the transcription factors NF-κB, TRE (AP-1, TPA responsive element) and CRE (cAMP responsive element). Luciferase activity of cell lysates resuspended in […] cell lysis buffer mixed (40 mml resuspended lysate: 40 mml assay reagent) was measured using the Luciferase Assay System (Promega), with emitted light measured by a Turner DesignsTD-20/20 luminometer (Steptech Instruments Ltd., Stevenage, U.K.)

In data set [3] the test system is GM-CSF release, A549 cells. As to the kind of experiment: GM-CSF release (sandwich assay) in IL-1β stimulated A549 cells. Format: cell-based. The settings on record: Homo sapiens, 1 ng/ml IL-1β, read-out: EC50 for inhibition of GM-CSF release. Here is the method: The human airway epithelial cell line A549 may be employed to study resveratrol inhibition of the release of IL-8 (interleukin 8) and GM-CSF (granulocyte macrophage-colony stimulating factor) by a 1 ng/ml stimulation with IL-1β (interleukin 1β). A549 cells, BEAS-2B cells and 16HBE-16o^− cells were stimulated with 1 ng/ml levels of IL-1β in the presence of resveratrol.
Cells, including the A549 cells, were cultured in Dulbecco's modified Eagle's medium (DMEM) 10% (v/v) fetal calf serum (FCS), 100 μg/ml penicillin and 100 μg/ml streptomycin. IL-8 release was measured by commercially available ELISA kit (R&D Systems).
GM-CSF release was measured in culture media by sandwich assay employing rat monoclonal capture antibody (Ab, mAb) against GM-CSF and a biotinylated rat anti-human GM-CSF mAb. The rat capture mAb against GM-CSF, diluted 1:500 in 0.1 M NaHCO3, was coated overnight at 4° C. onto 96 well plates. After washing, with wash buffer (NaCl: 145 mM, KCl: 4 mM, NaH2PO4: 10 mM, Tween-20: 0.05% (v/v), pH: 7.4) the plates were blocked by application of 10% (v/v) FCS at room temperature for 2 hours. After washing, samples and standards were added to the well plates and incubated at 4° C. overnight. […]

Turning to `Oc1ccc(/C=C/c2cc(O)cc(O)c2)cc1` [Resveratrol, 3,5,4′-trihydroxystilbene], the “efficacy as substitute for inhaled steroids in treating asthma” value in data set [1] (oral or pulmonary resveratrol vs pulmonary budenoside, 12 to 24 months) is recorded as “effective as substitutes for antiinflammatory treatment with inhaled steroids in treating asthma”. In addition, in data set [1] (oral or pulmonary resveratrol, including suppression of growth), the “systemic side effects compared with inhaled glucocorticoids” value was “reduced systemic side effects”. Moreover, in data set [2], the “extent of inhibition of NF-κB dependent transcription” value is given as “completely”. The EC50 in data set [2] (Homo sapiens, read-out: EC50 for inhibition of NF-κB dependent transcription) was 21 ± 7 µM; in data set [3], 22 ± 8 µM.
